Test results as given in patent US6673770B1, “Peptides for the treatment, prophylaxis, diagnosis and monitoring of autoimmune diseases” (Upither B.V., priority 1998, dated 2004).
Like-named read-outs stand apart in the source and are kept apart here. Ends that are not written are not given here. Peptide text beside a SMILES is read from it.

Tests used:
[1] = biological target: DRB1*0401 (Homo sapiens, UniProt P01903+P01911, A100K/A169T/F76Y/I96L/K127E/L162R/M171V/N62H/P40V/Q125Y/R42H/S133A/S149N/S66Y/V115G/V209L/W38E); assay: MHC-peptide competition binding assay on isolated DRB1*0401 molecules
Procedure: T-cell responses to the selected peptides in patients are analysed by studying T-cell proliferation of peripheral blood lymphocytes (PBL) and synovial fluid derived cells. […] In these human studies the peptides are tested as 15-mers containing the 9-mer sequence of Table 2 as core sequence. […] The MHC binding affinity of the selected peptides is analysed for the most-common MHC class II-arthritis associations. […] The peptide binding affinity is tested in a MHC-peptide competition assay on isolated MHC molecules in the presence of a labelled marker peptide.
# MHC-peptide binding was measured as described in Wauben et al., Int. Immunol. […] Peptide binding is expressed as tire IC50.

[2] = biological target: T1, MHC class II RT1.B^L (Rattus norvegicus, UniProt P20037+P29826); assay: MHC-peptide competition binding assay on isolated RT1.B^L molecules; design: species or system Lewis rat
T1 sequence (P20037 24-256): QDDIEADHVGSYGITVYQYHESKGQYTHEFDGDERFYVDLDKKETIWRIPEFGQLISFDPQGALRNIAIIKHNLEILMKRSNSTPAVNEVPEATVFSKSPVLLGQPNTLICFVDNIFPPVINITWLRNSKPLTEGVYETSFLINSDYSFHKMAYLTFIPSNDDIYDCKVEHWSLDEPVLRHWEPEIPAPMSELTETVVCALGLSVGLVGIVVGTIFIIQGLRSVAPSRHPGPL
T1 sequence (P29826 28-263): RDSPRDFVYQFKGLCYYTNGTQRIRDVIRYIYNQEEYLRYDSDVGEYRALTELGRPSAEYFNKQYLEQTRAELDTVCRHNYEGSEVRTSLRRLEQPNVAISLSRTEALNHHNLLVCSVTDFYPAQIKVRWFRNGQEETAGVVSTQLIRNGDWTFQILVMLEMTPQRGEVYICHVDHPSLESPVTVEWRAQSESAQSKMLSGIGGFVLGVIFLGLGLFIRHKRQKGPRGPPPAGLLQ
From the text: Because the rat self-antigen to which the A2b T-clone is reactive is not known at present time, the present inventors have designed a computer search strategy based on the interactions of the mycobacterial hsp65 178-186 peptide within the trimolecular complex of MHC class II (RT1.B^L)-mycobacterial hsp65 178-186-T-cell receptor of clone A2b, to identify relevant candidate arthritis-associated antigens that can serve as target for autoimmune T-cell mediated tissue destruction in arthritis. Within the mycobacterial hsp65 178-186 sequence, residues involved in MHC binding have been identified by using an MHC-peptide binding assay on isolated MHC class II RT1.B^L proteins. The residues which have an important role in determining the RT1.B^L binding affinity of the mycobacterial hsp65 178-186 peptide, the so-called MHC anchor residues were determined. By studying the MHC-peptide binding affinities of other non-related peptides, a general MHC-peptide binding motif for the Lewis rat RT1.B1 molecule was defined (Wauben et al., Int. Immunol. 9:281 (1997)). For the definition of residues within the minimal core sequence mycobacterial hsp65 180-186, interacting with the T-cell receptor of the A2b T cell clone, the results derived from MHC-peptide binding assays, and proliferation assays of the A2b T cell clone were integrated.
#RT1.B^L binding affinity is expressed as 50%ID (=inhibitory dose). The 50%ID value indicates the concentration of peptide needed to inhibit 50% binding of the marker peptide in a competition assay on isolated RT1.B^L molecules.

[3] = test system: T cells from inguinal and popliteal lymph nodes and spleen; assay: T-cell recognition (proliferation) during adjuvant arthritis time course; format: cell-based, Lewis rats; settings: positive: proliferation more than 1.5 times background in more than 25% of organs; days 14, 19, 21, 32, 39
[4] = test system: T cell clone A2b; assay: Recognition by A2b T-cell clone: proliferation and/or activation marker expression; format: cell-based, Lewis rats; settings: positive: proliferation more than 2 times background in 2 of 4 experiments and/or activation marker upregulation in 2 of 3 experiments
Procedure: As an immediate read-out for mimicry peptides T-cell activation is measured by proliferation, TcR downregulation, expression of activation markers, and cytokines responses of clone A2b. In addition A2b-like T cells from arthritic rats are isolated, and activation of such cells is measured by, proliferation, TcR downregulation, expression of activation markers, and cytokines responses. Furthermore, T-cell lines are generated after immunisation with MT/IFA or selected peptides/DDA. The cross-reactive nature of the peptide specific T-cell responses is analysed in vitro by determining the recognition of both the self peptide as well as the mycobacterial hsp65 178-186 peptide. After testing the panel of n=65 peptides for induction of proliferation of T cell clone A2b, and/or induction of expression of activation markers, n=20 peptides (SEQ ID NOs: 15, 19, 20, 21, 22, 23, 24, 26, 30, 31, 32, 33, 35, 49, 51, 61, 63, 65, 67, 69) were considered positive. Criteria for positivity were that in 2 out of 4 experiments the induced proliferation was more than 2 times background proliferation as measured by ^3H-thymidine incorporation, and/or that in 2 out of 3 experiments upregulation of an activation marker was detectable by FACS analysis.

[5] = biological target: T2, DRB1*0401 molecules, detergent solubilised (human), P01903; assay: competition assay on detergent solubilised DRB1*0401 (1 µM) with biotinylated HA-marker peptide (100 nM)
T2 chain 1: not shown
T2 chain 2: not shown

[6] = DRB1*0401 1 μM, biotinylated HA-marker peptide 100 nM, peptide 0-256 μM, read-out: DRB1*0401 binding (IC50)

CC(C)C[C@H](NC(=O)[C@H](CCC(=O)O)NC(=O)[C@H](CC(=O)O)NC(=O)[C@@H](NC(=O)[C@@H]1CCCN1C(=O)[C@@H](NC(=O)CNC(=O)[C@H](CO)NC(=O)CNC(=O)CNC(=O)[C@@H](N)CC(C)C)[C@@H](C)O)C(C)C)C(=O)N[C@@H](CC(=O)O)C(=O)N[C@@H](CCCCN)C(=O)N[C@@H](CS)C(=O)N[C@@H](CS)C(=O)O [SEQ ID NO: 79, LGGSGTPVDELDKCC] (H-LGGSGTPVDELDKCC-OH)
IC50 [1, 6]: 128 to 256 µM

AFGLQLELT [SEQ ID NO: 4, AFGLQLELT]
IC50 [2]: 64 to 128 µM

EDLVGSASGDLDLGK [SEQ ID NO: 75, EDLVGSASGDLDLGK]
IC50 [1, 6]: 32 to 64 µM

FFSGSSQLE (listed as Rattus sp.) [SEQ ID NO: 49]
T-cell recognition during adjuvant arthritis [3]: positive
Recognition by T cell clone A2b [4]: positive

GHSPPDDVD (listed as Homo sapiens) [SEQ ID NO: 51]
T-cell recognition during adjuvant arthritis [3]: positive
Recognition by T cell clone A2b [4]: positive

GVSASVPVE (listed as Rattus sp.) [SEQ ID NO: 30]
T-cell recognition during adjuvant arthritis [3]: positive
Recognition by T cell clone A2b [4]: positive

IDTAVLHLD (listed as Rattus sp.) [SEQ ID NO: 33]
T-cell recognition during adjuvant arthritis [3]: positive
Recognition by T cell clone A2b [4]: positive

IPTVNENLE (listed as Rattus sp.) [SEQ ID NO: 35]
T-cell recognition during adjuvant arthritis [3]: positive
Recognition by T cell clone A2b [4]: positive

ISSFCTVVD (listed as Rattus sp.) [SEQ ID NO: 61]
Recognition by T cell clone A2b [4]: positive

LGSGSTRLE (listed as Homo sapiens) [SEQ ID NO: 40]
T-cell recognition during adjuvant arthritis [3]: positive

LKSLSSQIE (listed as Homo sapiens) [SEQ ID NO: 19]
Recognition by T cell clone A2b [4]: positive

LPSGGDDLE (listed as Rattus sp.) [SEQ ID NO: 22]
T-cell recognition during adjuvant arthritis [3]: positive
Recognition by T cell clone A2b [4]: positive

LPSGGESLE (listed as Rattus sp.) [SEQ ID NO: 21]
T-cell recognition during adjuvant arthritis [3]: positive
Recognition by T cell clone A2b [4]: positive

LRSINQGLD (listed as Rattus sp.) [SEQ ID NO: 67]
Recognition by T cell clone A2b [4]: positive

LRSPVISID (listed as Homo sapiens) [SEQ ID NO: 23]
T-cell recognition during adjuvant arthritis [3]: positive
Recognition by T cell clone A2b [4]: positive

LRSPVISIE (listed as Mus musculus) [SEQ ID NO: 24]
T-cell recognition during adjuvant arthritis [3]: positive
Recognition by T cell clone A2b [4]: positive

MTSLKSVNGQIESLI [SEQ ID NO: 78, MTSLKSVNGQIESLI]
IC50 [1, 6]: 64 to 128 µM

NISLVGCIE (listed as Rattus sp.) [SEQ ID NO: 32]
Recognition by T cell clone A2b [4]: positive

PDSAPGEIE (listed as Rattus sp.) [SEQ ID NO: 31]
T-cell recognition during adjuvant arthritis [3]: positive
Recognition by T cell clone A2b [4]: positive

QGTIDTAVLHLDTNL [SEQ ID NO: 72, QGTIDTAVLHLDTNL]
IC50 [1]: 8 to 16 µM

QLLGVSASVPVEHRD [SEQ ID NO: 76, QLLGVSASVPVEHRD]
IC50 [1, 6]: 32 to 64 µM

QPLVQTAVTNIDRPK [SEQ ID NO: 77, QPLVQTAVTNIDRPK]
IC50 [1, 6]: 32 to 64 µM

SFSPTCVLE (listed as Homo sapiens) [SEQ ID NO: 38]
T-cell recognition during adjuvant arthritis [3]: positive

SGSFTTALD (listed as Homo sapiens) [SEQ ID NO: 65]
T-cell recognition during adjuvant arthritis [3]: positive
Recognition by T cell clone A2b [4]: positive

SGTPVDDLD (listed as Rattus sp.) [SEQ ID NO: 63]
T-cell recognition during adjuvant arthritis [3]: positive
Recognition by T cell clone A2b [4]: positive

SHSAVCHLE (listed as Homo sapiens) [SEQ ID NO: 36]
T-cell recognition during adjuvant arthritis [3]: positive

SHSFPATLE (listed as Homo sapiens) [SEQ ID NO: 47]
T-cell recognition during adjuvant arthritis [3]: positive

SYRLRSPVISIDPPS [SEQ ID NO: 74, SYRLRSPVISIDPPS]
IC50 [1, 6]: 16 to 32 µM

TAGLQLELT [SEQ ID NO: 5, TAGLQLELT]
IC50 [2]: 64 to 128 µM

TFALQLELT [SEQ ID NO: 6, TFALQLELT]
IC50 [2]: 32 to 64 µM

TFGAQLELT [SEQ ID NO: 7, TFGAQLELT]
IC50 [2]: 8 to 16 µM

TFGLALELT [SEQ ID NO: 8, TFGLALELT]
IC50 [2]: > 256 µM

TRSGNCYLD (listed as Homo sapiens) [SEQ ID NO: 54]
T-cell recognition during adjuvant arthritis [3]: positive

TTTVSSFSLNVEYAI [SEQ ID NO: 80, TTTVSSFSLNVEYAI]
IC50 [1, 6]: 128 to 256 µM

VGSASGALD (listed as Rattus sp.) [SEQ ID NO: 20]
T-cell recognition during adjuvant arthritis [3]: positive
Recognition by T cell clone A2b [4]: positive

VMSFVNMVE (listed as Homo sapiens) [SEQ ID NO: 69]
Recognition by T cell clone A2b [4]: positive

TTTVSSFSLNVEYAI (modifications not checked) [Versican: …]
IC50 [5]: 128 to 256 µM

SAFWPSLPSYLDAAY (modifications not checked) [MMP-10: …]
IC50 [5]: 8 to 16 µM

EDLVGSASGDLDLGK (modifications not checked) [Aggrecan (1): …]
IC50 [5]: 32 to 64 µM

SYRLRSPVISIDPPS (modifications not checked) [Perlecan: …]
IC50 [5]: 16 to 32 µM

QLLGVSASVPVEHRD (modifications not checked) [Chondroitin sulf.(1): …]
IC50 [5]: 32 to 64 µM

LGGSGTPVDELDKCC (not fully specified; cysteine pairing not given here) [Phospholipase A2: …]
IC50 [5]: 128 to 256 µM

QPLVQTAVTNIDRPK (modifications not checked) [Fibronectin: …]
IC50 [5]: 32 to 64 µM

MTSLKSVNGQIESLI (modifications not checked) [(Pro)collagen α1(III): …]
IC50 [5]: 64 to 128 µM

FFYFFTGSSQLEFDP (modifications not checked) [MMP-3 (2): …]
IC50 [5]: 8 µM

QGTIDTAVLHLDTNL (modifications not checked) [Chondroitin sulf.(4): …]
IC50 [5]: 8 to 16 µM

SSFWPSLPSGVDAAY (modifications not checked) [MMP-3 (1): …]
IC50 [5]: 16 to 32 µM
